The results in this text go back to US11149020B2, “MAP kinase modulators and uses thereof” (The Trustees of Columbia University in the City of New York, priority 2013, dated 2021).

For series [1], the system named is APP/PS1 mice. Nature of the series: Fear conditioning (contextual and cued) in APP/PS1 mice. The conditions noted are these: 2.5 mg/kg, daily, p.o., from 2 months of age.
The test system of series [2] is synaptic depression induced by OGD. Briefly: Oxygen glucose deprivation (OGD) in entorhinal slices, field potentials. The conditions noted are these: 10 μM, 10 min OGD. The procedure: Slice preparation. Animals were anesthetized using urethane (20% solution, 1 mL/100 g body weight) via intraperitoneal injection and then decapitated after disappearance of the tail pinch reflex. After brain removal, horizontal sections (400 μm in thickness), containing the entorhinal area, were made on a Vibratome. All steps were performed in ice-cold oxygenated ACSF solution. Before recording, slices were stored for at least 1 h in a recovery chamber containing oxygenated ACSF solution at room temperature. For electrophysiology, slices were perfused at a rate of 2.5-3 mL/min with oxygenated ACSF at 33±1° C. […] The amplitude of FP was monitored every 20 s and averaged every three responses by online data acquisition software. Effects on synaptic function were evaluated either during ischemia (as the average of FPs amplitude during the last 3 min of 10 min OGD application) or as the recovery of FPs calculated as the averaged relative amplitude of FPs respect to the baseline values after reintroduction of regular ACSF (from 41st to 50th min after the end of OGD). […]

The subject of series [3] is APP/PS1 transgenic and APP/PS1 knock-in mice. Nature of the series: β-amyloid plaque count, 6E10 immunohistochemistry. Type of series: in vivo, mouse. The procedure:
Histopathology. Immunohistochemistry was performed using the Ventana BenchMark Ultra automated platform. Tissue sections were first deparaffinized using Ventana's “ez-prep” solution. Antigen retrieval was performed by treatment at 95° C. for 54 minutes using Ventana's CC1 (pH 7.3) solution, followed by treatment with 0.3% hydrogen peroxide to block endogenous peroxidase. Tissue sections were then incubated in protein-free block (Biocare's background sniper) for 15 min to inhibit nonspecific binding. Primary antibody (anti-Aβ 6E10 at 1:400, Biocare Medical) was incubated for 32 min at room temperature. […] A board-certified neuropathologist, who was blinded to the treatment versus the control group, analyzed a sagittal section from each mouse and counted the total number of well-formed β-amyloid plaques.
MW-150 treatment improves cognitive performance in the absence of effect on Aβ plaque burden. […] (FIG. 26C) Quantification by a board-certified neuropathologist blinded to the treatment groups was done by analysis of a brain sagittal section from each mouse in which the total number of well-formed β-amyloid plaques in the entire section were counted. […] (FIG. 26D) In a separate experiment with APP/PS1 knock-in (KI) mice, Aβ plaques were quantified from KI mice treated with MW-150 or vehicle.

Series [4] relates to APP/PS1 mice. Nature of the series: LTP in APP/PS1 mice. The conditions noted are these: 2.5 mg/kg, daily, p.o., from 2 months until 3-4 months of age. It is filed as in vivo, mouse.
In series [5] the test system is APP/PS1 mice. Nature of the series: RAWM in APP/PS1 mice. The conditions noted are these: 2.5 mg/kg, daily, p.o., from 2 months of age.
Series [6] can be described thus: Repeat dosing, observation of adverse events. Type of series: in vivo, mouse. The conditions noted are these: aged or diseased animals. The text has this:
Further, the results in a battery of behavioral tests are consistent with a true hippocampus-dependent mechanism of action in attenuation of memory deficits. […] The selective improvement in cognitive behavior was also brought about with no effect on amyloid plaque load (Wilcock, D. M., and Colton, C. A. (2009) Immunotherapy, vascular pathology and microhemorrhages in transgenic mice. CNS Neurol. Disord.: Drug Targets 8, 50-64, herein incorporated by reference in its entirety).

As for `CN1CCN(c2cc(-c3ccncc3)c(-c3ccc4ccccc4c3)nn2)CC1` [27 (MW-150), 6-(4-methylpiperazine-1-yl)-3-(naphthalen-2-yl)-4-(pyridin-4-yl)pyridazine], the “contextual fear memory defect in APP/PS1 mice” value with APP/PS1 mice [1] is “rescue the defect in contextual fear learning”. The “synaptic depression induced by OGD” value in series [2] is listed as “ameliorated”. The amyloid plaque burden result in series [3] is recorded as “no effects of MW-150 treatment on the amyloid plaque burden”. Moreover, the “LTP defect in APP/PS1 mice” value in the series on APP/PS1 mice [4] was “rescue defects in LTP”. The “spatial/reference memory defect (RAWM) in APP/PS1 mice” value in the series on APP/PS1 mice [5] is on record as “rescue defects in spatial memory”. Moreover, the “adverse events with repeat dosing” value in series [6] is given as “did not bring about any observed adverse events”.
